The NIST ThermoML archive (doi:10.1007/s10765-009-0593-3)
Numbers after ± are expanded uncertainties.

Test: xn = mol fraction of the nth substance listed
Details: 101 kPa, Liquid; for speed of sound: Pulse-echo method

CCCOCC(C)OCC(C)O (stereo not given) [1-(1-methyl-2-propoxyethoxy)-2-propanol] + CCCCN(CCCC)CCCC
Details | mass density, 298.15 K [kg/m3] | mass density, 303.15 K [kg/m3] | mass density, 308.15 K [kg/m3] | speed of sound, 303.15 K [m/s] | speed of sound, 308.15 K [m/s]
x1 = 0.1122 | 786.535 ± 0.49 | 782.639 ± 0.49 | 778.737 ± 0.5 | 1225 ± 0.81 | 1206.3 ± 0.8
x1 = 0.1665 | 792.738 ± 0.48 | 788.781 ± 0.49 | 784.827 ± 0.49 | 1224.8 ± 0.81 | 1206.1 ± 0.8
x1 = 0.2084 | 797.652 ± 0.47 | 793.661 ± 0.48 | 789.668 ± 0.48 | 1224.9 ± 0.81 | 1206.2 ± 0.8
x1 = 0.2538 | 803.115 ± 0.46 | 799.083 ± 0.47 | 795.057 ± 0.48 | 1225.3 ± 0.81 | 1206.5 ± 0.8
x1 = 0.313 | 810.479 ± 0.45 | 806.404 ± 0.46 | 802.329 ± 0.47 | 1226.1 ± 0.81 | 1207.4 ± 0.8
x1 = 0.3558 | 815.967 ± 0.45 | 811.844 ± 0.45 | 807.734 ± 0.46 | 1227 ± 0.81 | 1208.3 ± 0.8
x1 = 0.4148 | 823.733 ± 0.43 | 819.576 ± 0.44 | 815.399 ± 0.45 | 1228.5 ± 0.81 | 1209.8 ± 0.8
x1 = 0.4472 | 828.099 ± 0.43 | 823.913 ± 0.43 | 819.704 ± 0.44 | 1229.4 ± 0.81 | 1210.8 ± 0.8
x1 = 0.5008 | 835.454 ± 0.42 | 831.251 ± 0.42 | 826.995 ± 0.43 | 1231.2 ± 0.81 | 1212.6 ± 0.8
x1 = 0.5451 | 841.706 ± 0.41 | 837.473 ± 0.41 | 833.167 ± 0.42 | 1232.8 ± 0.81 | 1214.3 ± 0.8
x1 = 0.6077 | 850.786 ± 0.39 | 846.555 ± 0.4 | 842.165 ± 0.41 | 1235.4 ± 0.81 | 1217 ± 0.8
x1 = 0.6566 | 858.15 ± 0.38 | 853.912 ± 0.39 | 849.462 ± 0.4 | 1237.7 ± 0.81 | 1219.3 ± 0.81
x1 = 0.7143 | 867.175 ± 0.37 | 862.905 ± 0.38 | 858.43 ± 0.38 | 1240.4 ± 0.81 | 1222.1 ± 0.81
x1 = 0.7514 | 873.195 ± 0.36 | 868.91 ± 0.37 | 864.43 ± 0.37 | 1242.3 ± 0.81 | 1224.1 ± 0.81
x1 = 0.8016 | 881.597 ± 0.35 | 877.285 ± 0.36 | 872.799 ± 0.36 | 1245 ± 0.81 | 1226.8 ± 0.81
x1 = 0.856 | 890.981 ± 0.34 | 886.63 ± 0.34 | 882.174 ± 0.35 | 1247.9 ± 0.81 | 1230 ± 0.81
x1 = 0.904 | 899.4 ± 0.32 | 894.989 ± 0.33 | 890.566 ± 0.34 | 1250.6 ± 0.81 | 1232.8 ± 0.81
x1 = 0.9553 | 908.256 ± 0.31 | 903.826 ± 0.32 | 899.408 ± 0.32 | 1253.5 ± 0.82 | 1235.9 ± 0.81
